The record followed here is patent US10960010B2, “Pharmaceutical compositions for sustained or delayed release” (INTRA-CELLULAR THERAPIES, INC., priority 2013, dated 2021).

“Also recorded” adds a separate entry of the source.

This series concerns patients with schizophrenia. As to the kind of experiment: Randomized, double-blind, placebo-controlled in-patient trial, 4-week treatment, PANSS. It counts as in vivo, human. How it is done:
For purposes of this example, Compound A refers to the compound of Formula I wherein X is —N(CH3)— and Y is —C(O)—; tosylate salt unless otherwise indicated. A randomized, double-blind, placebo-controlled, in-patient trial is performed. Four treatment arms, 4-week treatment duration, QAM dosing are performed as follows: 60 mg of Compound A; 120 mg of Compound A; positive control (4 mg Risperidone); and placebo. The primary outcome is measured by the change from baseline on Positive and Negative Syndrome Scale (PANSS) Total Score at Day 28. Secondary measures explore key differentiating features.
60 mg Compound A Treatment Arm receives 60 mg of Compound A once daily for 28 days. 120 mg Compound A Treatment Arm receives 60 mg Compound A on Study Day 1 followed by 120 mg Compound A once daily for 27 days. Risperidone Treatment Arm receives 2 mg risperidone on Study Day 1 followed by 4 mg risperidone once daily for 27 days. Placebo Treatment Arm receives placebo once daily for 28 days. All doses are administered in the morning with breakfast.
Key inclusion criteria: Clinical diagnosis of schizophrenia according to DSM-IV-TR is confirmed by modified SCID-CT. Screening Brief Psychiatric […] Scale (BPRS) score of 40 or greater (18-items scored 1-7 each). Minimum score of 4 or higher on at least two of the following positive items: suspiciousness, conceptual disorganization, hallucinatory behavior, unusual thought content. Current exacerbated episode lasts no longer than 4 weeks. Sufficient history and/or independent reporter must verify that current state is an exacerbated state for the individual. Prior response to antipsychotic therapy within the last 5 years, defined as clinically significant and documented decrease in delusions and/or hallucinations during a documented exacerbated episode (and at least 3 months prior exposure to antipsychotic therapy).
The trial has a high subject completion rate (74%) compared to an average of 62% completion rate in other 4-week antipsychotic trials. 19% discontinues during the study treatment period (during Day 1-28). 7% completes study treatment through Day 28, but are lost to follow up.

Setting [1] is: 60 mg, sub-group of patients with depression at baseline.

As to `Cc1nc2n(c(=O)c1CCN1CCC(c3noc4cc(F)ccc34)CC1)CCCC2` [Risperidone, reference compound], under “4 mg Risperidone”, the “Effect Size (Total PANSS)” value was 0.4 and the “LS Mean Difference from Placebo (Total PANSS, Day 28)” value (“LS Mean Difference from Placebo” below) is −6.0. The “LS Mean Change from Baseline on Day 28 Total PANSS (±SE) using MMRM/ITT” value (shortened to “LS Mean Change … (±SE) using MMRM/ITT”) (4 mg Risperidone (2 mg on Day 1, then 4 mg once daily 27 days), N = 75) is on record as −13.4 ± 1.7. The “total PANSS and negative symptoms compared with the Compound of Formula I” value (risperidone arm, sub-group of patients with depression at baseline) was “less effective”.
For the molecule `CN1CCN2c3c(cccc31)[C@@H]1CN(CCCC(=O)c3ccc(F)cc3)CC[C@@H]12` [Compound A], where the note is “60 mg”, the “Prosocial PANSS Factor change from baseline compared to placebo” value is reported as “significantly improve”; the “general psychopathology subscale of the PANSS” value is “statistically significantly improves”; the “items on the negative symptom and general psychopathology subscales consistent with improved social function” value is “improves certain items”; the “positive symptom subscale of the PANSS” value is reported as “statistically significantly improves”. Moreover, where the note is “60 mg Compound A”, the “Effect Size (Total PANSS)” value is given as 0.4 and the “LS Mean Difference from Placebo” value is −5.8. In addition, the “LS Mean Change … (±SE) using MMRM/ITT” value (60 mg Compound A (tosylate) once daily in the morning, 28 days, N = 76) is −13.2 ± 1.7. Besides, the “PANSS total score, result in words” value (60 mg once daily in the morning, after 28 days of treatment) was “demonstrates antipsychotic efficacy; also recorded: statistically significant and clinically meaningful decrease”. The “hyperprolactinemia, EPS/akathisia, weight gain, cardiovascular safety” value (60 mg once daily, 28 days) is given as “does not cause hyperprolactinemia, EPS/akathisia, weight gain or cardiovascular safety issues”. In addition, under setting [1], the “negative symptoms (PANSS Negative Symptom Sub-Scale)” value is listed as “robustly improves” and the “total PANSS” value is listed as “robustly improves”. Moreover, the “negative symptoms (PANSS Negative Symptom Sub-Scale)” value (60 mg, subgroup of patients with prominent negative symptoms at baseline) is given as “improves negative symptoms qualitatively”. For the same molecule, under “60 mg, subgroup with CDSS score >6 at baseline”, the “depression as measured by the CDSS” value is recorded as “significantly reduces depression”. Also, where the note is “120 mg Compound A”, the “Effect Size (Total PANSS)” value is given as 0.1 and the “LS Mean Difference from Placebo” value is on record as −0.9. Besides, the “LS Mean Change … (±SE) using MMRM/ITT” value (120 mg Compound A (60 mg on Day 1, then 120 mg once daily 27 days), N = 80) is given as −8.3 ± 1.7.
